In US11560370B1, “5-membered heteroaryl carboxamide compounds for treatment of HBV” (Assembly Biosciences, Inc., priority 2018, dated 2023):

These molecules were tested on HBV (assay: Viral production from HepAD38 cells, viral load by qPCR of HBV core sequence). Conditions: 5 days, supernatant HBV DNA by qPCR, read-out: Viral Load EC50 Activity range.
Assay type: cell-based
Method: Assay Measuring Activity of Test Compounds on Viral Production from HepAD38 Cells
HepAD38 cells grown in a T-150 flask (Corning, cat #: 430825) with Growth Medium (DMEM/F12 (1:1) (Hyclone, cat #: SH30023.02), 1× Pen/Strep (Invitrogen, cat #: 15140-122), 10% FBS (Tissue Culture Biologics, cat #: 101), 250 μg/mL G418 (Alfa Aesar, cat #: J62671), 1 μg/mL Tetracycline (Teknova, cat #: T3320)) were detached with 0.25% trypsin-EDTA to (Invitrogen, cat #: 25200-056). Tetracycline-free treatment medium (15 mL DMEM/F12 (1:1) 1× Pen/step, with 2% FBS, Tet-system approved (Clontech, cat #: 631106) were then added to mix, transferred into a 50 ml conical tube (Falcon, cat #: 21008-918,) and spun at 1300 rpm for 5 min. Pelleted cells were then re-suspended/washed with 50 mL of 1×DPBS (Invitrogen, cat #: 14190-136) 2 times and 50 mL treatment medium twice. HepAD38 cells were then re-suspended with 10 mL of treatment medium, syringed and counted. Wells of 96-well clear bottom TC plate (Corning, cat #: 3904,) were seeded at 50,000 cells/well in 180 μL of treatment medium, and 20 μL of either 10% DMSO (Sigma, cat #: D4540) as controls or a 10× solution of test compounds in 10% DMSO in treatment media was added for a final compound concentration starting at 10 μM, and plates were incubated in 5% CO2 incubator at 37° C. for 5 days.
Subsequently viral load production was assayed by quantitative PCR (qPCR) of the HBV core sequence. PCR reaction mixture containing forward primers HBV-f 5′-CTGTGCCTTGGGTGGCTTT-3′ (IDT DNA), Reverse primers HBV-r 5′-[…]-3′ (IDT DNA), Fluorescent TaqMan™ Probes HBV-probe 5′-FAM/AGCTCCAAA/ZEN/[…]/3IABkFQ-3′ (IDT DNA), 10 μL/well of PerfeCTa® qPCR ToughMix® (Quanta Biosciences, Cat #: 95114-05K), and 6 μL/well of DEPC water (Alfa Aesar, cat #: J62087) was prepared. […] of supernatant was added to 16 μL of the reaction mixture in a qPCR plate (Applied Biosytems, Cat #: 4309849), sealed with a film (Applied Biosystems, Cat #: 4311971), centrifuged for a few seconds, and subsequently run on an Applied Biosystems VIIA7. The PCR mixture was incubated at 45° C. for 5 min, then 95° C. for 10 min, followed by 40 cycles of 10 seconds at 95° C. and 20 seconds at 60° C. Viral load was quantified against known HBV DNA standards by using ViiA™ 7 Software. Viral load in the supernatant from wells with treated cells were compared against viral load in supernatant from DMSO control wells (>3 per plate). Cell viability assay was performed with CellTiter-Glo Luminescent Cell Viability Assay (Promega, cat #: G7573) with modification. Mixed appropriate amount of CellTiter-Glo (CTG) 1×DPBS in a 1:1 ratio, added 100 uL of the mixture to each well followed completely removal of all supernatant in each well without touching cell surface. Incubated the plate at room temperature for 10 min on an orbital shaker, and then read the plate with a plate reader (TECAN M1000 or Envision). EC50 or CC50 values were calculated through curve-fitting of the four-parameter nonlinear-logistic-regression model (GraphPad Prism or Dotmatics). CC50 values were all >10 μM.
Work on `COc1ccccc1C1CCC(c2nn(C)c(N)c2C(=O)Nc2ccc(F)c(Cl)c2)C1` (single isomer, unassigned) [AIA-275B, 5-Amino-N-(3-chloro-4-fluorophenyl)-3-(3-(2-methoxyphenyl)cyclopentyl)-1-methyl-1H-pyrazole-4-carboxamide] yielded an EC50 of 100 to 500 nM.
In the case of `COc1ccccc1C1CCC(c2nn(C)c(N)c2C(=O)Nc2ccc(F)c(Cl)c2)C1` (single isomer, unassigned) [AIA-275D, 5-Amino-N-(3-chloro-4-fluorophenyl)-3-(3-(2-methoxyphenyl)cyclopentyl)-1-methyl-1H-pyrazole-4-carboxamide], the EC50 is reported as less than 100 nM.
Work on `CC(C)OCC1(O)CC2CC(c3nn(C)c(N)c3C(=O)Nc3ccc(F)c(Cl)c3)CC2C1` (single isomer, unassigned) [AIA-339-1, 5-Amino-N-(3-chloro-4-fluorophenyl)-3-(5-hydroxy-5-(isopropoxymethyl)octahydropentalen-2-yl)-1-methyl-1H-pyrazole-4-carboxamide] yielded an EC50 of 500 to 10000 nM.
`CC(C)OCC1(O)CC2CC(c3nn(C)c(N)c3C(=O)Nc3ccc(F)c(Cl)c3)CC2C1` (single isomer, unassigned) [AIA-339-2, 5-Amino-N-(3-chloro-4-fluorophenyl)-3-(5-hydroxy-5-(isopropoxymethyl)octahydropentalen-2-yl)-1-methyl-1H-pyrazole-4-carboxamide] showed an EC50 of 100 to 500 nM.
For `COc1cc(-c2ncc[nH]2)ccc1C1CCC(c2nn(C)c(N)c2C(=O)Nc2ccc(F)c(Cl)c2)C1` (single isomer, unassigned) [AIA-352-1, 3-(3-(4-(1H-Imidazol-2-yl)-2-methoxyphenyl)cyclopentyl)-5-amino-N-(3-chloro-4-fluorophenyl)-1-methyl-1H-pyrazole-4-carboxamide], the EC50 was 500 to 10000 nM.
`COc1cc(-c2ncc[nH]2)ccc1C1CCC(c2nn(C)c(N)c2C(=O)Nc2ccc(F)c(Cl)c2)C1` (single isomer, unassigned) [AIA-352-2, 3-(3-(4-(1H-Imidazol-2-yl)-2-methoxyphenyl)cyclopentyl)-5-amino-N-(3-chloro-4-fluorophenyl)-1-methyl-1H-pyrazole-4-carboxamide] showed an EC50 of less than 100 nM.
Work on `Cn1nc(C2CC3CC(O)(CN4CCCCC4)CC3C2)c(C(=O)Nc2ccc(F)c(Cl)c2)c1N` (single isomer, unassigned) [AIA-363-2, 5-Amino-N-(3-chloro-4-fluorophenyl)-3-(5-hydroxy-5-(piperidin-1-ylmethyl)octahydropentalen-2-yl)-1-methyl-1H-pyrazole-4-carboxamide] yielded an EC50 of 100 to 500 nM.
`COc1cc(-c2nccn2C)ccc1C1CCC(c2nn(C)c(N)c2C(=O)Nc2ccc(F)c(Cl)c2)C1` (single isomer, unassigned) [AIA-367-2, 5-Amino-N-(3-chloro-4-fluorophenyl)-3-(3-(2-methoxy-4-(1-methyl-1H-imidazol-2-yl)phenyl)cyclopentyl)-1-methyl-1H-pyrazole-4-carboxamide] gave an EC50 of less than 100 nM.

Same assay, conditions: Hepatitis B virus, HePAD38, 120 h, 5 days, supernatant HBV DNA by qPCR, read-out: Viral Load EC50 Activity range
Work on `Cn1nc(C2CC3CC(O)(CS(=O)(=O)CCO)CC3C2)c(C(=O)Nc2ccc(F)c(Cl)c2)c1N` (single isomer, unassigned) [AIA-266-1, 5-Amino-N-(3-chloro-4-fluorophenyl)-3-(5-hydroxy-5-(((2-hydroxyethyl)sulfonyl)methyl)octahydropentalen-2-yl)-1-methyl-1H-pyrazole-4-carboxamide] yielded an EC50 of less than 100 nM.
Work on `COc1ccccc1C1CCC(c2nn(C)c(N)c2C(=O)Nc2ccc(F)c(Cl)c2)C1` (single isomer, unassigned) [AIA-275A, 5-Amino-N-(3-chloro-4-fluorophenyl)-3-(3-(2-methoxyphenyl)cyclopentyl)-1-methyl-1H-pyrazole-4-carboxamide] yielded an EC50 of 100 to 500 nM.
With `COc1cccc(C2CCC(c3nn(C)c(N)c3C(=O)Nc3ccc(F)c(Cl)c3)C2)c1` (single isomer, unassigned) [AIA-276D, 5-Amino-N-(3-chloro-4-fluorophenyl)-3-(3-(3-methoxyphenyl)cyclopentyl)-1-methyl-1H-pyrazole-4-carboxamide] the EC50 was less than 100 nM.
In the case of `Cn1nc(C2CC3CC(O)(CSCCO)CC3C2)c(C(=O)Nc2ccc(F)c(Cl)c2)c1N` (single isomer, unassigned) [AIA-283-1, 5-Amino-N-(3-chloro-4-fluorophenyl)-3-(5-hydroxy-5-(((2-hydroxyethyl)thio)methyl)octahydropentalen-2-yl)-1-methyl-1H-pyrazole-4-carboxamide], the EC50 is reported as less than 100 nM.
Work on `Cn1nc(C2CC3CC(O)(CSCCN4CCOCC4)CC3C2)c(C(=O)Nc2ccc(F)c(Cl)c2)c1N` (single isomer, unassigned) [AIA-284-1, 5-Amino-N-(3-chloro-4-fluorophenyl)-3-(5-hydroxy-5-(((2-morpholinoethyl)thio)methyl)octahydropentalen-2-yl)-1-methyl-1H-pyrazole-4-carboxamide] yielded an EC50 of less than 100 nM.
Molecule `Cn1nc(C2CC3CC(O)(CS(=O)(=O)CCCN4CCCCC4)CC3C2)c(C(=O)Nc2ccc(F)c(Cl)c2)c1N` (single isomer, unassigned) [AIA-349-b, 5-Amino-N-(3-chloro-4-fluorophenyl)-3-(5-hydroxy-5-(((3-(piperidin-1-yl)propyl)sulfonyl)methyl)octahydropentalen-2-yl)-1-methyl-1H-pyrazole-4-carboxamide] has an EC50 of 100 to 500 nM.
With `Cn1nc(C2CC3CC(O)(CS(=O)(=O)CCCN4CCNCC4=O)CC3C2)c(C(=O)Nc2ccc(F)c(Cl)c2)c1N` (single isomer, unassigned) [AIA-351-a, 5-Amino-N-(3-chloro-4-fluorophenyl)-3-(5-hydroxy-5-(((3-(2-oxopiperazin-1-yl)propyl)sulfonyl)methyl)octahydropentalen-2-yl)-1-methyl-1H-pyrazole-4-carboxamide] the EC50 was 500 to 10000 nM.
In the case of `Cn1nc(C2CC3CC(O)(CN4CCCCC4)CC3C2)c(C(=O)Nc2ccc(F)c(Cl)c2)c1N` (single isomer, unassigned) [AIA-363-1, 5-Amino-N-(3-chloro-4-fluorophenyl)-3-(5-hydroxy-5-(piperidin-1-ylmethyl)octahydropentalen-2-yl)-1-methyl-1H-pyrazole-4-carboxamide], the EC50 is reported as 100 to 500 nM.
In the case of `Cn1nc(C2CC3CC(O)(CN4CCOCC4)CC3C2)c(C(=O)Nc2ccc(F)c(Cl)c2)c1N` (single isomer, unassigned) [AIA-364-2, 5-Amino-N-(3-chloro-4-fluorophenyl)-3-(5-hydroxy-5-(morpholinomethyl)octahydropentalen-2-yl)-1-methyl-1H-pyrazole-4-carboxamide], the EC50 is reported as 100 to 500 nM.
`COc1cc(-c2cn(C)cn2)ccc1C1CCC(c2nn(C)c(N)c2C(=O)Nc2ccc(F)c(Cl)c2)C1` (single isomer, unassigned) [AIA-365-2, 5-Amino-N-(3-chloro-4-fluorophenyl)-3-(3-(2-methoxy-4-(1-methyl-1H-imidazol-4-yl)phenyl)cyclopentyl)-1-methyl-1H-pyrazole-4-carboxamide] showed an EC50 of less than 100 nM.
`COc1cc(-c2c[nH]cn2)ccc1C1CCC(c2nn(C)c(N)c2C(=O)Nc2ccc(F)c(Cl)c2)C1` (single isomer, unassigned) [AIA-366-2, 3-(3-(4-(1H-Imidazol-4-yl)-2-methoxyphenyl)cyclopentyl)-5-amino-N-(3-chloro-4-fluorophenyl)-1-methyl-1H-pyrazole-4-carboxamide] showed an EC50 of less than 100 nM.
Work on `COc1cc(-c2nccn2C)ccc1C1CCC(c2nn(C)c(N)c2C(=O)Nc2ccc(F)c(Cl)c2)C1` (single isomer, unassigned) [AIA-367-1, 5-Amino-N-(3-chloro-4-fluorophenyl)-3-(3-(2-methoxy-4-(1-methyl-1H-imidazol-2-yl)phenyl)cyclopentyl)-1-methyl-1H-pyrazole-4-carboxamide] yielded an EC50 of 100 to 500 nM.
